Measurements published in paper PMC4669759 (Cell Death & Disease, 2015).

Assays:
MCL-1–BIM complexes = molecular target: T1, MCL-1–BIM complexes (Homo sapiens, UniProt Q07820); experiment: Co-immunoprecipitation–electrochemiluminescent ELISA of MCL-1–BIM complexes in H929 cells; type: cell-based; settings: 4 h
T1 construct: endogenous in cells; host or cells: H929
Procedure: (§1) (a) H929 cells were treated with increasing concentrations of A-1210477 for 4 h. […] All data represent the mean of triplicate experiments, with error bars indicating the S.D. (b) Quantitative measurement of protein–protein interactions using a luciferase-based mammalian two-hybrid assay. […] All data represent the means of triplicate experiments, with error bars indicating the S.Ds.
After compound treatments, cells were lysed in buffer containing 1% CHAPS, 10 mM HEPES, and 150 mM NaCl with protease inhibitor cocktail (Roche, Indianapolis, IN, USA). In all, 100 μg of cell lysate was added to each well of a Meso Scale Discovery (Rockville, MD, USA) 96-well plate precoated with biotinylated anti-MCL-1 antibody (clone RC13) from Thermo Fisher Scientific. MCL-1-BIM complexes were detected with rabbit anti-BIM antibody (clone Y36) from Abcam, followed by Sulfo-tagged anti-rabbit antibody (Meso Scale Discovery; cat no. R32AB-5) and Meso Scale Discovery reading buffer with surfactant (cat. no. R92TC-2) according to the manufacturer's recommendations. Each step was followed by washing three times with PBS-T (PBS+0.1% Tween-20).

BCL-2–BIM interactions = molecular target: T2, BCL-2–BIM interactions (Homo sapiens, UniProt P10415); experiment: Mammalian two-hybrid assay, BCL-2–BIM, HeLa cells; type: cell-based; settings: 24 h, luciferase two-hybrid
T2 construct: expressed in transfected cells; host or cells: HeLa cells stably expressing a GAL4-luciferase reporter
Procedure: as §1
HeLa cells stably expressing a GAL4-luciferase reporter were seeded into 10 cm dishes at 5 × 10^5 cells per plate. In all, 24 μg of a plasmid expressing both the ‘bait' and ‘prey' fusion proteins (GAL4DBD-BIM and VP16AD-BCL-2, GAL4DBD-BCL-XL and VP16AD- BCL-XS, or GAL4DBD-MCL-1 and VP16AD-NOXA, respectively) were mixed with 1.5 ml OptiMEM (Invitrogen). Separately, 24 μl Lipofectamine 2000 (Invitrogen) were mixed with 1.5 ml OptiMEM. Both solutions were incubated for 5 min (RT) and then mixed together for 20 min. Three milliliters of the mixture was added to cells in 12 ml culture medium lacking antibiotics, incubated at 37 °C for 24 h, and then transferred to 96-well plates at 20 000 cells per well. Compounds were added in half-log dilutions, starting from 1 μM and ending at 0.0001 μM for 24 h, and luciferase activity was assessed using ONE-Glo reagent (Promega). All data were plotted as the percentage of complex remaining relative to untreated controls.

H929 cells = experiment: Cell viability, H929 cells; type: cell-based, human; settings: H929, 48 h
Procedure: Figure 4 Indole-2-carboxylic acids induce the hallmarks of apoptosis in MCL-1-dependent cancer cell line H929. (a) Digitonin-permeabilized H929 cells were treated with 10 μM BH3 peptides for 4 h, and intact H929 cells were incubated with increasing concentrations (0.1–10 μM) of A-1208746 for 4 h before assessing the levels of cytochrome c released into the cytosol. (b) H929 and RS4;11 cells were incubated with increasing concentrations of MCL-1 inhibitors or the BCL-2-selective inhibitor ABT-199 (venetoclax) for 48 h before determining cell viability. Cell killing IC50s are plotted with each value representing the mean of three separate experiments. Error bars represent the S.E.M. (c) H929 cells were incubated with increasing concentrations of MCL-1 inhibitors in the presence or absence of the pan-caspase inhibitor QVD (100 μM) for 4 h before assessing caspase-3/-7 activation, mitochondrial membrane polarization, and the exposure of phosphatidylserine. […]
Adherent cell lines were seeded at 50 000 cells per well in 96-well plates and treated for 48 h with compounds diluted in half-log steps starting at 30 μM and ending at 0.001 μM. […] Effects on proliferation and viability were determined using CellTiter-Glo reagent from Promega (Madison, WI, USA) according to the manufacturer's instructions. IC50 values were determined by non-linear regression analysis of the concentration response data.

H2110 cells = experiment: Cell viability, H2110 cells; type: cell-based, human
Procedure: (§2) Figure 5 A-1210477 kills MCL-1-dependent NSCLC cancer cell lines. NSCLC cell lines (a) H2110 or (c) H23 were transfected with a construct expressing the MCL1 CDS tagged with a Flag epitope or empty control vector. These cells were subsequently transfected with siRNAs targeting the MCL1 CDS, the MCL1 3′ UTRa or UTRb, or a scrambled control sequence. Cell viability was assessed 72 h later with MCL-1 and Flag immunoblots performed in parallel. (b) H2110 or (d) H23 cells were treated with increasing concentrations of A-1210477 for 72 h before assessing cell viability.
(§3) Adherent cell lines were seeded at 50 000 cells per well in 96-well plates and treated for 48 h with compounds diluted in half-log steps starting at 30 μM and ending at 0.001 μM. Multiple myeloma cell lines were seeded at 15 000–20 000 cells per well and treated similarly. Effects on proliferation and viability were determined using CellTiter-Glo reagent from Promega (Madison, WI, USA) according to the manufacturer's instructions. IC50 values were determined by non-linear regression analysis of the concentration response data.

H23 cells = experiment: Cell viability, H23 cells; type: cell-based, human
Procedure: as §2, §3

T1 sequence (Q07820 whole entry, one chain of several): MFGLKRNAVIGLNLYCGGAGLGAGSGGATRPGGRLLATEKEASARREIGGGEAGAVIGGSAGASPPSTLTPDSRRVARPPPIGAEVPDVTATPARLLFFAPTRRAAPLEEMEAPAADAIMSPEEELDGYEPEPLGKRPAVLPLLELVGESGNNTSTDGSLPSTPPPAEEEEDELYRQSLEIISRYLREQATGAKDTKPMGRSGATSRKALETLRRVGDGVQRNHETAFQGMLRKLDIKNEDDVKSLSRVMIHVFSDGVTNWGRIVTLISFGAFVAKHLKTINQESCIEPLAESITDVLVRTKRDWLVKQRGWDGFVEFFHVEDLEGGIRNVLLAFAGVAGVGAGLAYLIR
T2 sequence (P10415 whole entry, the tested form may be a part): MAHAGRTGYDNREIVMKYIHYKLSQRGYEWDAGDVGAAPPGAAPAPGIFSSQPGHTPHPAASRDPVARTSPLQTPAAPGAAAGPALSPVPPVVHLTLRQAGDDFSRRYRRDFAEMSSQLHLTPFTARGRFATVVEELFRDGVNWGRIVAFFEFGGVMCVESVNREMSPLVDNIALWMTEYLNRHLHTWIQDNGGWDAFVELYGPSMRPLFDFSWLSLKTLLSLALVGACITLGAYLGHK

## Cc1nn(C)c(COc2ccc(N3CCN(S(=O)(=O)N(C)C)CC3)cc2)c1-c1cccc2c(CCCOc3cccc4ccccc34)c(C(=O)O)n(CCN3CCOCC3)c12 [A-1210477]
MCL-1–BIM complexes
  IC50, reduction of BIM co-immunoprecipitated with MCL-1: low-μM range
BCL-2–BIM interactions
  effect on BCL-2–BIM interactions: no effect
H929 cells
  cell killing IC50: low-μM range
H2110 cells; H2110
  IC50: < 10 µM
H2110 cells; H2110, 72 h
  EC50: 5.3 µM
H23 cells; H23
  IC50: < 10 µM
H23 cells; H23, 72 h
  EC50: 7.2 µM
